The results in this text go back to PubChem BioAssay (NCI).

Some test systems named below: UO-31 renal; NCI-H226 lung; OVCAR-8 ovarian; SR leukemia; HCT-15 colon; OVCAR-3 ovarian; DU-145 prostate; K-562 leukemia; SK-MEL-5 melanoma; RXF 393 renal.
What all share (assay): growth of human tumour cells (NCI), 48 h

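Step 1: Grow cells in 96-well plates. Step 2: Expose to compound for 48 hours at 5 concentrations. Step 3: Interpolate endpoints linearly; if unreached, use highest concentration. The concentration for 50% growth inhibition is given as GI50. TGI denotes the concentration required for complete inhibition of growth.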 Where only a bound is given, the exact number is not on record here.

On to `C1CN(SSN2CCOCC2)CCO1`, for which the GI50 with UO-31 renal is 49.5 µM; with NCI-H226 lung, more than 100 µM; in the test with OVCAR-8 ovarian, 52.1 µM; in the test on SR leukemia it was 48.9 µM; with HCT-15 colon, 35.6 µM; in the test on OVCAR-3 ovarian it was 32.3 µM. Besides, the GI50 with DU-145 prostate was more than 100 µM; in the test on K-562 leukemia it was 4.58 µM; in the test with SK-MEL-5 melanoma, 41.1 µM; in the test with RXF 393 renal, 21.8 µM. Besides, the TGI with UO-31 renal is more than 100 µM; with NCI-H226 lung it was more than 100 µM; with OVCAR-8 ovarian, more than 100 µM; with SR leukemia, more than 100 µM; with HCT-15 colon, more than 100 µM; with OVCAR-3 ovarian it was 89.2 µM. In addition, the TGI in the test on DU-145 prostate was more than 100 µM; with K-562 leukemia, more than 100 µM; in the test on SK-MEL-5 melanoma, more than 100 µM; in the test with RXF 393 renal it was 41.4 µM.
As for `COc1c(Cl)cc(NC(=S)C#N)cc1Cl`, the TGI was 56.1 µM in the test on UO-31 renal; 57.6 µM with NCI-H226 lung; more than 69.3 µM in the test with OVCAR-8 ovarian; more than 92.2 µM with SR leukemia; 46.8 µM in the test on HCT-15 colon; more than 62.8 µM in the test with OVCAR-3 ovarian. In addition, the TGI with DU-145 prostate was more than 100 µM; in the test on K-562 leukemia, more than 100 µM; in the test on SK-MEL-5 melanoma it was 32.9 µM; in the test with RXF 393 renal, more than 81.4 µM.
In the case of `C/C=C(\C)C(=O)O[C@H]1C=CC(=O)O[C@@H]1CC[C@H](O)[C@H](C)O`, the GI50 in the test with UO-31 renal was 20.5 µM; in the test with NCI-H226 lung, 47.4 µM; in the test on OVCAR-8 ovarian, 52.5 µM; in the test with SR leukemia, 4.7 µM; in the test on HCT-15 colon, 28.6 µM; in the test with OVCAR-3 ovarian, 36.5 µM. The GI50 is 34 µM with DU-145 prostate, 33 µM with K-562 leukemia, 25.4 µM in the test with SK-MEL-5 melanoma and 49.5 µM in the test on RXF 393 renal. The TGI is more than 67.4 µM in the test on UO-31 renal; more than 100 µM in the test with NCI-H226 lung; more than 100 µM with OVCAR-8 ovarian; 42.8 µM with SR leukemia; more than 80.3 µM in the test on HCT-15 colon; more than 100 µM in the test on OVCAR-3 ovarian. Moreover, the TGI in the test on DU-145 prostate was more than 100 µM; in the test on K-562 leukemia, more than 100 µM; in the test on SK-MEL-5 melanoma it was 75.2 µM; with RXF 393 renal, more than 88.7 µM.
In the case of `O=c1nc2oc3ccc4ccccc4c3cc-2s1`, the GI50 with UO-31 renal is 33.7 µM; in the test on NCI-H226 lung, 17.7 µM; in the test with OVCAR-8 ovarian it was 29.4 µM; in the test with SR leukemia, 0.458 µM; with HCT-15 colon it was more than 45.7 µM; in the test on OVCAR-3 ovarian it was 0.457 µM. In addition, the GI50 in the test on DU-145 prostate is 11.5 µM; in the test on K-562 leukemia, 0.526 µM; in the test with SK-MEL-5 melanoma, 2.44 µM; in the test with RXF 393 renal it was 1.83 µM. Moreover, the TGI is more than 100 µM in the test on UO-31 renal; more than 100 µM with NCI-H226 lung; more than 100 µM with OVCAR-8 ovarian; more than 100 µM with SR leukemia; more than 100 µM with HCT-15 colon; more than 23.7 µM in the test on OVCAR-3 ovarian. For the same molecule, the TGI in the test with DU-145 prostate was more than 100 µM; in the test with K-562 leukemia it was more than 100 µM; with SK-MEL-5 melanoma it was more than 100 µM; in the test on RXF 393 renal it was 21.6 µM.
Turning to `Cc1ccc(S(=O)(=O)Nc2cccc3[nH]c(C(F)(F)F)nc23)cc1`, the GI50 in the test on UO-31 renal was 1.3 µM; in the test on NCI-H226 lung, 3.73 µM; in the test with OVCAR-8 ovarian, 1.22 µM; in the test on SR leukemia, 0.383 µM; with HCT-15 colon, 0.408 µM; with OVCAR-3 ovarian, 0.426 µM. For the same molecule, the GI50 in the test with DU-145 prostate is 1.2 µM; with K-562 leukemia, 0.269 µM; in the test with SK-MEL-5 melanoma it was 0.429 µM; in the test on RXF 393 renal, 1.17 µM. For the same molecule, the TGI in the test on UO-31 renal was more than 57.5 µM; in the test on NCI-H226 lung, 29.1 µM; with OVCAR-8 ovarian, more than 47.8 µM; in the test on SR leukemia, 22 µM; in the test with HCT-15 colon, more than 100 µM; with OVCAR-3 ovarian it was more than 100 µM. The TGI with DU-145 prostate is more than 39.9 µM; in the test on K-562 leukemia it was more than 100 µM; in the test with SK-MEL-5 melanoma, 3.98 µM; in the test with RXF 393 renal, 27.1 µM.
Consider `CC(C)(O)CC(=O)NCCn1ccc2ncnc(Nc3ccc(Oc4cccc(C(F)(F)F)c4)c(Cl)c3)c21`, for which the GI50 was 1.12 µM with UO-31 renal; 3.19 µM with NCI-H226 lung; 3.65 µM in the test with OVCAR-8 ovarian; 2.14 µM with SR leukemia; 2.5 µM in the test with HCT-15 colon; 2.42 µM in the test on OVCAR-3 ovarian. Also, the GI50 is 2.96 µM with DU-145 prostate, 4.54 µM in the test with K-562 leukemia, 2.84 µM in the test with SK-MEL-5 melanoma and 1.87 µM with RXF 393 renal. Also, the TGI with UO-31 renal, in the test on NCI-H226 lung, in the test with OVCAR-8 ovarian, in the test with SR leukemia, with HCT-15 colon and with OVCAR-3 ovarian was more than 10 µM in each case. Besides, the TGI was more than 10 µM in the test with DU-145 prostate, more than 10 µM in the test with K-562 leukemia, more than 10 µM with SK-MEL-5 melanoma and 4.31 µM with RXF 393 renal.
On to `CN(C)c1ccc2c(c1)OC(N)=C(C#N)C2c1ccc2c(c1)CCO2` (centres undefined), for which the GI50 with UO-31 renal was 0.362 µM; in the test with NCI-H226 lung, 2.38 µM; in the test with OVCAR-8 ovarian, 0.39 µM; in the test on SR leukemia, less than 0.0198 µM; with HCT-15 colon it was less than 0.0262 µM; in the test with OVCAR-3 ovarian it was less than 0.0213 µM. Besides, the GI50 in the test on DU-145 prostate was 0.229 µM; with K-562 leukemia, less than 0.023 µM; in the test with SK-MEL-5 melanoma, less than 0.0427 µM; in the test on RXF 393 renal it was 0.255 µM. Further, the TGI was 35.4 µM in the test on UO-31 renal; more than 62.4 µM in the test on NCI-H226 lung; 39.9 µM with OVCAR-8 ovarian; more than 48.2 µM in the test on SR leukemia; more than 100 µM with HCT-15 colon; 1.88 µM in the test on OVCAR-3 ovarian. In addition, the TGI with DU-145 prostate is more than 100 µM; with K-562 leukemia, more than 100 µM; in the test with SK-MEL-5 melanoma, 15.1 µM.
As to `Nc1[nH]nc2nc(-c3cccs3)cc(C(F)(F)F)c12`, the GI50 in the test on UO-31 renal was more than 25 µM; in the test with NCI-H226 lung, more than 23.2 µM; in the test with OVCAR-8 ovarian, more than 25 µM; with SR leukemia, more than 13.7 µM; in the test on HCT-15 colon it was more than 25 µM; with OVCAR-3 ovarian it was more than 25 µM. In addition, the GI50 with DU-145 prostate was more than 25 µM; in the test on K-562 leukemia it was more than 25 µM; with SK-MEL-5 melanoma, more than 25 µM; in the test on RXF 393 renal, 18.9 µM. The TGI in the test on UO-31 renal, in the test with NCI-H226 lung, in the test on OVCAR-8 ovarian, in the test on SR leukemia, with HCT-15 colon and with OVCAR-3 ovarian was more than 25 µM throughout. Besides, the TGI with DU-145 prostate, with K-562 leukemia, with SK-MEL-5 melanoma and in the test with RXF 393 renal was more than 25 µM throughout.
